Assay results: patent publication US9855245B2, “Methods for improving lipid profiles using atrasentan” (AbbVie Inc., priority 2013, dated 2018)
Several values for one entry are separate records, joined by “and”; a condition that tells them apart may be missing. Identical values can stand only once.

Legend:
[1] = system: subjects with type 2 diabetes and nephropathy; assay: Example 1: Phase 2b randomized, double-blind, placebo-controlled 12-week clinical study; conditions: for Weight, LS Mean Change from Baseline (SE): Week 12; for UACR Change from Baseline LS Mean (SE) / UACR Geometric Mean Change (Percent): baseline to final on-treatment measurement
Procedure: The primary efficacy endpoint was the change from baseline to Week 12 in log-transformed UACR with the primary analysis conducted using mixed-effects, maximum likelihood, repeated measures (MMRM) with fixed effects for treatment, country, visit, and treatment-by-visit interaction, with baseline measurement and baseline-by-visit interaction as covariates.
All safety analyses were performed on treatment-emergent adverse events only. Treatment-emergent adverse events were defined as those that first occurred or worsened on or after the date of first dose of study drug through 30 days after the last dose of study drug.

[2] = Example 6: modeling data on edema risk based on a Phase 2A study (NCT00920764); parameters: species or system human
Source text: The graph was made by overlaying receptor occupancy data. (See also Table 20, below.)

ob-ZSF1 rats = assay: Example 5: preclinical study of hypotensive synergy, mean arterial pressure; type: in vivo, rat
Source text: In the example, a preclinical animal model is used to evaluate whether atrasentan and an ARB cause a synergistic hypotensive effect.

With `CCCCN(CCCC)C(=O)CN1C[C@H](c2ccc3c(c2)OCO3)[C@@H](C(=O)O)[C@@H]1c1ccc(OC)cc1` [Atrasentan, (2R,3R,4S)-4-(1,3-benzodioxol-5-yl)-1-[2-(dibutylamino)-2-oxoethyl]-2-(4-methoxyphenyl)pyrrolidine-3-carboxylic acid] the “subjects with adverse event infection” value ([1]; 0.75 mg/day) was 3.4%, the “systolic blood pressure, mean change from baseline to last on-treatment visit” value ([1]; 0.75 mg/day) was −2.44 mmHg and the “weight, mean change from baseline to last on-treatment visit” value ([1]; 0.75 mg/day) was -1.20 kg. The “UACR Between-group Comparison Difference (90% CI)” value ([1]; 0.75 mg/day vs placebo) was −0.47 (−0.71, −0.22), the “Weight, LS Mean Change from Baseline (SE)” value ([1]; 0.75 mg/day) was −0.8 (0.69) kg and the “UACR Change from Baseline LS Mean (SE)” value ([1]; 0.75 mg/day) was −0.47 (0.12) log mg/g creatinine. For the same compound, the “UACR Geometric Mean Change (Percent)” value ([1]; 0.75 mg/day) was −37.77%, the Any adverse event ([1]; 1.25 mg, N = 64) was 47 (73.4) N (%) of Subjects and the “Any adverse event leading to discontinuation of study drug” value ([1]; 1.25 mg, N = 64) was 7 (10.9) N (%) of Subjects. The Death ([1]; 1.25 mg, N = 64) was 0 N (%) of Subjects, the Fatal adverse event ([1]; 1.25 mg, N = 64) was 0 N (%) of Subjects and the “Possibly or probably drug-related adverse event” value ([1]; 1.25 mg, N = 64) was 27 (42.2) N (%) of Subjects. The Serious adverse event ([1]; 1.25 mg, N = 64) was 4 (6.3) N (%) of Subjects, the Severe adverse event ([1]; 1.25 mg, N = 64) was 1 (1.6) N (%) of Subjects and the “Cholesterol, Difference (95% CI) from placebo” value ([1]; 1.25 mg/day) was −17.2 (−31.60, −2.88) mg/dL. For the same compound, the “Cholesterol, Final On-Treatment Visit Mean (SD)” value ([1]; 1.25 mg/day) was 147.6 (33.53) mg/dL, the “Cholesterol, LS Mean Change from Baseline (SE)” value ([1]; 1.25 mg/day) was −16.2 (3.75) mg/dL and the “HDL-C, Difference (95% CI) from placebo” value ([1]; 1.25 mg/day) was 2.2 (−1.61, 6.08) mg/dL. The “HDL-C, Final On-Treatment Visit Mean (SD)” value ([1]; 1.25 mg/day) was 43.4 (10.51) mg/dL, the “HDL-C, LS Mean Change from Baseline (SE)” value ([1]; 1.25 mg/day) was −0.2 (1.00) mg/dL and the “Had ≧30% Reduction in UACR and No Edema (no moderate or severe adverse event of edema)” value ([1]; 1.25 mg/day) was 28 (45.9) Number (%) of Subjects. For the same compound, the “Hemoglobin, Difference (95% CI) from placebo” value ([1]; 1.25 mg/day) was −0.98 (−1.462, −0.505) g/dL, the “Hemoglobin, Final On-Treatment Visit Mean (SD)” value ([1]; 1.25 mg/day) was 11.79 (1.702) g/dL and the “Hemoglobin, LS Mean Change from Baseline (SE)” value ([1]; 1.25 mg/day) was −1.02 (0.120) g/dL. The “LDL-C, Difference (95% CI) from placebo” value ([1]; 1.25 mg/day) was −13.1 (−23.98, −2.29) mg/dL, the “LDL-C, Final On-Treatment Visit Mean (SD)” value ([1]; 1.25 mg/day) was 69.5 (22.54) mg/dL and the “LDL-C, LS Mean Change from Baseline (SE)” value ([1]; 1.25 mg/day) was −11.0 (2.83) mg/dL. For the same compound, the “Percentage of Subjects with ≧30% Reduction in Log-Transformed UACR from Baseline to Final Measurement” value ([1]; 1.25 mg/day) was 52.5%, the “Percentage of Subjects with ≧40% Reduction in Log-Transformed UACR from Baseline to Final Measurement” value ([1]; 1.25 mg/day) was 36.1% and the “Percentage of Subjects with ≧50% Reduction in Log-Transformed UACR from Baseline to Final Measurement” value ([1]; 1.25 mg/day) was 29.5%. The “Triglycerides, Difference (95% CI) from placebo” value ([1]; 1.25 mg/day) was −64.6 (−123.32, −5.97) mg/dL, the “Triglycerides, Final On-Treatment Visit Mean (SD)” value ([1]; 1.25 mg/day) was 167.4 (84.98) mg/dL and the “Triglycerides, LS Mean Change from Baseline (SE)” value ([1]; 1.25 mg/day) was −31.4 (15.31) mg/dL. The “Weight, Final On-Treatment Visit Mean (SD)” value ([1]; 1.25 mg/day) was 92.6 (18.74) kg, the “diastolic blood pressure, mean change from baseline to last on-treatment visit” value ([1]; 1.25 mg/day) was −2.74 mmHg and the “fatigue leading to discontinuation” value ([1]; 1.25 mg/day) was 3.1%. For the same compound, the “geometric mean reduction in UACR, baseline to final on-treatment measurement” value ([1]; 1.25 mg/day) was 40.7%, the incidence of anemia ([1]; 1.25 mg/day) was 4.7% and the “incidence of peripheral edema” value ([1]; 1.25 mg/day) was 42.2%. The “mean diastolic blood pressure, difference from baseline” value ([1]; 1.25 mg/day) was “statistically significant from Weeks 1 through 10”, the “mean increases in weight vs placebo (repeated-measures analysis)” value ([1]; 1.25 mg/day) was “statistically significantly different from the mean changes with placebo from Week 1 through Week 8” and the “mean systolic blood pressure, difference from baseline” value ([1]; 1.25 mg/day) was “statistically significant at Weeks 1, 8, and 10”. The “peripheral edema leading to discontinuation” value ([1]; 1.25 mg/day) was 4.7%, the “subjects discontinued because of an adverse event” value ([1]; 1.25 mg/day) was 7 subjects and the “subjects discontinued prematurely from the study” value ([1]; 1.25 mg/day) was 15.6%. The “subjects who discontinued study drug because of adverse events” value ([1]; 1.25 mg/day) was 10.9%, the “subjects with adverse event infection” value ([1]; 1.25 mg/day) was 0% and the “systolic blood pressure, mean change from baseline to last on-treatment visit” value ([1]; 1.25 mg/day) was −2.98 mmHg. For the same compound, the “triglycerides, difference from placebo” value ([1]; 1.25 mg/day) was “statistically significant”, the “weight, mean change from baseline to last on-treatment visit” value ([1]; 1.25 mg/day) was 2.02 kg and the “UACR Between-group Comparison Difference (90% CI)” value ([1]; 1.25 mg/day vs placebo) was −0.51 (−0.75, −0.28). The “mean ambulatory systolic blood pressure, difference from placebo” value ([1]; 1.25 mg/day, Week 6) was “statistically significant difference”, the “Weight, LS Mean Change from Baseline (SE)” value ([1]; 1.25 mg/day) was 0.6 kg and 0.6 (0.66) kg and the “UACR Change from Baseline LS Mean (SE)” value ([1]; 1.25 mg/day) was −0.52 (0.11) log mg/g creatinine. The “UACR Geometric Mean Change (Percent)” value ([1]; 1.25 mg/day) was −40.67%, the “mean HDL-C change” value ([1]; all treatment groups, change not clinically meaningful) was “decreased slightly” and the “hemoglobin relative to placebo” value ([1]; both atrasentan groups, at Week 2 and throughout the study) was “Statistically significantly mean decreases”. It also gave a Risk of edema ([2]; Dose 0.25 mg) of 15%, a Risk of edema ([2]; Dose 0.75 mg) of 22% and a Risk of edema ([2]; Dose 1.75 mg) of 43%. For the same compound, the “decrease in MAP” value (ob-ZSF1 rats; 1.5 mg/kg/day combined with losartan (10 mg/kg/day)) was “approximately the same as the decrease in MAP when losartan was administered alone” and the “mean arterial pressure (MAP)” value (ob-ZSF1 rats; alone at 1.5 mg/kg/day or 5 mg/kg/day) was “did not significantly affect mean arterial pressure”.
